One assay has as its system p70S6 kinase (T389). The assay is described as follows: Western blot of colonic p70S6K phosphorylation in C. jejuni infected mice. The format is in vivo. The settings on record: AS252424 10 mg/kg i.p. daily, 6 days. The method, then:
Whole tissues were lysed in Laemmli buffer and 20 μg of protein was separated by SDS-PAGE, transferred to nitrocellulose membranes and protein detected using enhanced chemiluminescence reaction (ECL) as described previously. (Lippert et al., 2009). Primary antibodies used were phospho-p70S6K (T389) and p70S6K (Cell Signaling, Danvers, Mass., United States of America), EGFP (Sigma, St. Louis, Mo., United States of America), LC3 I/II (MBL) and Actin.
A segment of the distal colon was lysed in 300 μl Laemmli buffer, homogenized and heated at 95° C. for 5 min. 20 μg of total protein were separated by SDS-PAGE and transferred to nitrocellulose membranes. Targeted protein was detected using enhanced chemiluminescence reaction (ECL) as described previously (Muhlbauer et al., 2008). Primary antibodies used were phosphor-AKT (S473), phosphor-p70S6K (T389), total AKT (all from Cell Signaling, Danvers, Mass., United States of America) and EGFP (Sigma, St. Louis, Mo., United States of America). The density of Western blot bands was quantified using ImageJ and data were normalized to total AKT control.
On the technique in general: A western blot detects proteins with antibodies after separation by electrophoresis.

In a further assay the test system is II-17a mRNA. Nature of the assay: Real-time RT-PCR of colonic II-17a mRNA. The assay is classed as in vivo, mice. The settings on record: AS252424 vs vehicle treated infected mice. The method, then: Total RNA from colonic tissue was extracted using TRIzol® kit (Invitrogen, Carlsbad, Calif., United States of America). Complementary DNA was prepared using M-MLV (Invitrogen). Messenger RNA levels of proinflammatory genes were determined using SYBR® Green PCR Master Mix (Applied Biosystems, Carlsbad, Calif., United States of America) on an ABI 7900HT Fast Real-Time PCR System and normalized to Gapdh. The polymerase chain reactions were performed according to the manufacturer's recommendation. The following gene primers were used: Gapdh_forward: 5′-[…]-3′ (SEQ ID NO: 2), Gapdh_reverse: 5′-[…]-3′ (SEQ ID NO: 3), II-1_forward: 5′-[…]-3′ (SEQ ID NO: 4), II-1_reverse: 5′-[…]-3′ (SEQ ID NO: 5), Cxcl2_forward: 5′-[…]-3′ (SEQ ID NO: 6), Cxcl2_reverse: 5′-[…]-3′ (SEQ ID NO: 7), II-17a_forward: 5′-[…]-3′ (SEQ ID NO: 8), II-17a_reverse: 5′-[…]-3′ (SEQ ID NO: 9), II12p40_forward: […] (SEQ ID NO: 10), II12p40_reverse: […] (SEQ ID NO: 11), Tnf forward: […] (SEQ ID NO: 12), Tnf reverse: […] (SEQ ID NO: 13).
Total RNA from intestinal tissues was extracted using TRIzol® kit (Invitrogen, Carlsbad, Calif., United States of America) following the manufacture's guide. cDNA was reverse-transcribed using M-MLV (Invitrogen). Proinflammatory 111β, Cxcl2, II17a and Tnfα mRNA expression levels were measured using SYBR® Green PCR Master mix (Applied Biosystems, Carlsbad, Calif., United States of America) on an ABI 7900HT Fast Real-Time PCR System and normalized to Gapdh. The PCR primers used were reported previously. (Sun et al., 2012). The PCR reactions were performed for 40 cycles according to the manufacturer's recommendation, and RNA fold changes were calculated using the ΔΔct method.
(In general: Quantitative PCR measures a nucleic acid by following its amplification.)

For another assay, the system named is C. jejuni. Nature of the assay: Colonic crypt abscess count in C. jejuni infected mice. The assay is classed as in vivo. The settings on record: AS252424-treated II10−/− mice vs vehicle. An excerpt:
All animal protocols were approved by the Institutional Animal Care and Use Committee of the University of North Carolina at Chapel Hill (Chapel Hill, N.C., United States of America). Germ-free 8-12 week-old II10^−/−; NF-κBEGFP (129/SvEv; C57BL/6 mixed background), II10^−/− and II10^−/−; Rag2^−/− mice (129/SvEv) were transferred from germ-free isolators and immediately gavaged with a single dose of 10^9 C. jejuni cfu/mouse (strain 81-176 (Korlath et al., 1985)) and sacrificed after up to 14 days as described previously (Sun et al., 2012). Specific pathogen free (SPF) housed Wt, II10^−/− and Pi3kγ^−/− (Sasaki et al., 2000) mice all on a 129/SvEv background were gavaged 10^9 C. jejuni cfu/mouse one day after 7 day treatment with antibiotics cocktail (streptomycin 2 g/L, gentamycin 0.5 g/L, bacteriocin 1 g/L and ciprofloxacin 0.125 g/L) (Sun et al., 2012). […] Histological images were acquired using a DP71 camera and DP Controller 3.1.1.276 (Olympus, Center Valley, Pa., United States of America), and intestinal inflammation was scored on a scale of 0 to 4 as described before (Lippert et al., 2009; Sun et al., 2012). Neutrophils in colonic tissues were identified based on morphological features using H&E stained sections and counted in 5 fields of view/mouse using a microscope. Data were expressed as average counts/mouse.

For the compound `O=C1NC(=O)/C(=C/c2ccc(-c3ccc(F)cc3O)o2)S1` [AS252424], in the assay with p70S6 kinase (T389), the “attenuation of p70S6K phosphorylation (T389) in colonic extracts” value was 34%. The “block of C. jejuni-induced II17a mRNA accumulation” value in the assay on II-17a mRNA stood at 72%. Also, the “reduction of C. jejuni-induced crypt abscesses” value in the assay on C. jejuni is recorded as 95%.

Source of the values: patent publication US20130225629A1, “TARGETING PI3K/MTOR SIGNALLING AND NEUTROPHIL RECRUITMENT FOR TREATMENT OF ENTERITIS” (THE UNIVERSITY OF NORTH CAROLINA AT CHAPEL HILL, priority 2012, published 2013).
